Source: the supplement of paper PMC10307832

Key:
Assay in all cases: relative viability (nuclei count vs DMSO), 5 days (fraction); higher = more cells survive
Linifanib = compound: Cc1ccc(F)c(NC(=O)Nc2ccc(-c3cccc4[nH]nc(N)c34)cc2)c1 [Linifanib]
How it was run: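 Five library-drug doses spaced by √10 were pinned onto vehicle-anchored 1536-well plates of lung cancer cell lines that had been kept overnight at 37 °C. Cells went 5 days without medium change, then were fixed, permeabilised and Hoechst-stained together, imaged at 4× and counted by MetaXpress. Viability is the ratio of treated-well to vehicle-well nuclei, taken as a median over plates. Plates required control CV below 25% and at least one doubling.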

Linifanib + Navitoclax = compound: Cc1ccc(F)c(NC(=O)Nc2ccc(-c3cccc4[nH]nc(N)c34)cc2)c1 [Linifanib] + CC1(C)CCC(c2ccc(Cl)cc2)=C(CN2CCN(c3ccc(C(=O)NS(=O)(=O)c4ccc(N[C@H](CCN5CCOCC5)CSc5ccccc5)c(S(=O)(=O)C(F)(F)F)c4)cc3)CC2)C1 [Navitoclax] (partner 0.5 µM)
How it was run: (§1)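 For relative viability, nuclei counts in treated wells were divided by those in vehicle wells. Lung cancer cell lines had been pin-tool dosed in 1536-well plates the day after seeding and cultured for 5 days, then fixed and stained in one step (final 0.05% Triton X-100, 1% formaldehyde, 1 ug/ml Hoechst) and imaged at 4×. Doses were one drug alone or a fixed anchor-drug dose plus five library-drug doses (not always all listed) in √10 steps, and values are duplicate-plate medians.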

Linifanib + Foretinib = compound: Cc1ccc(F)c(NC(=O)Nc2ccc(-c3cccc4[nH]nc(N)c34)cc2)c1 [Linifanib] + COc1cc2c(Oc3ccc(NC(=O)C4(C(=O)Nc5ccc(F)cc5)CC4)cc3F)ccnc2cc1OCCCN1CCOCC1 [Foretinib] (partner 0.25 µM)
How it was run: as §1

Linifanib + Lapatinib = compound: Cc1ccc(F)c(NC(=O)Nc2ccc(-c3cccc4[nH]nc(N)c34)cc2)c1 [Linifanib] + CS(=O)(=O)CCNCc1ccc(-c2ccc3ncnc(Nc4ccc(OCc5cccc(F)c5)c(Cl)c4)c3c2)o1 [Lapatinib] (partner 2 µM)
How it was run: as §1

Linifanib + Pictilisib = compound: Cc1ccc(F)c(NC(=O)Nc2ccc(-c3cccc4[nH]nc(N)c34)cc2)c1 [Linifanib] + CS(=O)(=O)N1CCN(Cc2cc3nc(-c4cccc5[nH]ncc45)nc(N4CCOCC4)c3s2)CC1 [Pictilisib] (partner 1 µM)
How it was run: as §1

Linifanib + Crizotinib = compound: Cc1ccc(F)c(NC(=O)Nc2ccc(-c3cccc4[nH]nc(N)c34)cc2)c1 [Linifanib] + C[C@@H](Oc1cc(-c2cnn(C3CCNCC3)c2)cnc1N)c1c(Cl)ccc(F)c1Cl [Crizotinib] (partner 1 µM)
How it was run: as §1

Linifanib + Linsitinib = compound: Cc1ccc(F)c(NC(=O)Nc2ccc(-c3cccc4[nH]nc(N)c34)cc2)c1 [Linifanib] + C[C@]1(O)C[C@@H](c2nc(-c3ccc4ccc(-c5ccccc5)nc4c3)c3c(N)nccn32)C1 [Linsitinib] (partner 1 µM)
How it was run: as §1

Linifanib + Alpelisib = compound: Cc1ccc(F)c(NC(=O)Nc2ccc(-c3cccc4[nH]nc(N)c34)cc2)c1 [Linifanib] + Cc1nc(NC(=O)N2CCC[C@H]2C(N)=O)sc1-c1ccnc(C(C)(C)C(F)(F)F)c1 [Alpelisib] (partner 2 µM)
How it was run: as §1

Linifanib + Phenformin = compound: Cc1ccc(F)c(NC(=O)Nc2ccc(-c3cccc4[nH]nc(N)c34)cc2)c1 [Linifanib] + N=C(N)NC(=N)NCCc1ccccc1 [Phenformin] (partner 250 µM)
How it was run: as §1

Linifanib + Decitabine = compound: Cc1ccc(F)c(NC(=O)Nc2ccc(-c3cccc4[nH]nc(N)c34)cc2)c1 [Linifanib] + Nc1ncn([C@H]2C[C@H](O)[C@@H](CO)O2)c(=O)n1 [Decitabine] (partner 2 µM)
How it was run: as §1

Linifanib + Olaparib = compound: Cc1ccc(F)c(NC(=O)Nc2ccc(-c3cccc4[nH]nc(N)c34)cc2)c1 [Linifanib] + O=C(c1cc(Cc2n[nH]c(=O)c3ccccc23)ccc1F)N1CCN(C(=O)C2CC2)CC1 [Olaparib] (partner 8 µM)
How it was run: as §1

Linifanib + Bortezomib = compound: Cc1ccc(F)c(NC(=O)Nc2ccc(-c3cccc4[nH]nc(N)c34)cc2)c1 [Linifanib] + CC(C)C[C@H](NC(=O)[C@H](Cc1ccccc1)NC(=O)c1cnccn1)B(O)O [Bortezomib] (partner 0.002 µM)
How it was run: as §1

Linifanib + Vorinostat = compound: Cc1ccc(F)c(NC(=O)Nc2ccc(-c3cccc4[nH]nc(N)c34)cc2)c1 [Linifanib] + O=C(CCCCCCC(=O)Nc1ccccc1)NO [Vorinostat] (partner 1 µM)
How it was run: as §1

Linifanib + Luminespib = compound: Cc1ccc(F)c(NC(=O)Nc2ccc(-c3cccc4[nH]nc(N)c34)cc2)c1 [Linifanib] + CCNC(=O)c1noc(-c2cc(C(C)C)c(O)cc2O)c1-c1ccc(CN2CCOCC2)cc1 [Luminespib] (partner 0.01 µM)
How it was run: as §1

Linifanib + OSI-027 = compound: Cc1ccc(F)c(NC(=O)Nc2ccc(-c3cccc4[nH]nc(N)c34)cc2)c1 [Linifanib] + COc1cccc2cc(-c3nc([C@H]4CC[C@H](C(=O)O)CC4)n4ncnc(N)c34)[nH]c12 [OSI-027] (partner 0.5 µM)
How it was run: as §1

Linifanib + Tozasertib = compound: Cc1ccc(F)c(NC(=O)Nc2ccc(-c3cccc4[nH]nc(N)c34)cc2)c1 [Linifanib] + Cc1cc(Nc2cc(N3CCN(C)CC3)nc(Sc3ccc(NC(=O)C4CC4)cc3)n2)n[nH]1 [Tozasertib] (partner 0.1 µM)
How it was run: as §1

Linifanib + Dasatinib = compound: Cc1ccc(F)c(NC(=O)Nc2ccc(-c3cccc4[nH]nc(N)c34)cc2)c1 [Linifanib] + Cc1nc(Nc2ncc(C(=O)Nc3c(C)cccc3Cl)s2)cc(N2CCN(CCO)CC2)n1 [Dasatinib] (partner 0.075 µM)
How it was run: as §1

Cell Line	relative viability (Linifanib; 0.03162 µM)	relative viability (Linifanib; 0.1 µM)	relative viability (Linifanib; 0.3162 µM)	relative viability (Linifanib + Navitoclax; first compound 0.03162 µM)	relative viability (Linifanib + Navitoclax; first compound 0.1 µM)	relative viability (Linifanib + Navitoclax; first compound 0.3162 µM)	relative viability (Linifanib + Foretinib; first compound 0.03162 µM)	relative viability (Linifanib + Foretinib; first compound 0.1 µM)	relative viability (Linifanib + Foretinib; first compound 0.3162 µM)	relative viability (Linifanib + Lapatinib; first compound 0.03162 µM)	relative viability (Linifanib + Lapatinib; first compound 0.3162 µM)	relative viability (Linifanib + Pictilisib; first compound 0.03162 µM)	relative viability (Linifanib + Pictilisib; first compound 0.1 µM)	relative viability (Linifanib + Pictilisib; first compound 0.3162 µM)	relative viability (Linifanib + Crizotinib; first compound 0.03162 µM)	relative viability (Linifanib + Crizotinib; first compound 0.3162 µM)	relative viability (Linifanib + Linsitinib; first compound 0.03162 µM)	relative viability (Linifanib + Linsitinib; first compound 0.1 µM)	relative viability (Linifanib + Linsitinib; first compound 0.3162 µM)	relative viability (Linifanib + Alpelisib; first compound 0.03162 µM)	further results
A549	1.01	1.05	0.996	1.18	1.28	1.09	0.972	0.922	0.808	0.974	0.929	0.399	0.515	0.49	0.795	0.726	0.583	0.716	0.638	0.885	relative viability (Linifanib + Lapatinib; first compound 0.1 µM): 1.06; relative viability (Linifanib + Crizotinib; first compound 0.1 µM): 0.907; relative viability (Linifanib + Alpelisib; first compound 0.1 µM): 0.948; relative viability (Linifanib + Alpelisib; first compound 0.3162 µM): 0.647; relative viability (Linifanib + Phenformin; first compound 0.03162 µM): 0.197; relative viability (Linifanib + Phenformin; first compound 0.1 µM): 0.215; relative viability (Linifanib + Phenformin; first compound 0.3162 µM): 0.159; relative viability (Linifanib + Decitabine; first compound 0.03162 µM): 0.285; relative viability (Linifanib + Decitabine; first compound 0.1 µM): 0.309; relative viability (Linifanib + Decitabine; first compound 0.3162 µM): 0.374; relative viability (Linifanib + Olaparib; first compound 0.03162 µM): 0.369; relative viability (Linifanib + Olaparib; first compound 0.1 µM): 0.535; relative viability (Linifanib + Olaparib; first compound 0.3162 µM): 0.305
IA-LM	0.983	0.84	0.914	0.855	0.947	0.656	1.2	1.18	1.15	0.718	0.713	0.313	0.319	0.338	0.806	0.768	0.611	0.46	0.55	0.588	relative viability (Linifanib + Bortezomib; first compound 0.03162 µM): 0.752; relative viability (Linifanib + Bortezomib; first compound 0.1 µM): 0.974; relative viability (Linifanib + Bortezomib; first compound 0.3162 µM): 0.846; relative viability (Linifanib + Alpelisib; first compound 0.1 µM): 0.872; relative viability (Linifanib + Alpelisib; first compound 0.3162 µM): 0.643; relative viability (Linifanib + Vorinostat; first compound 0.03162 µM): 0.841; relative viability (Linifanib + Vorinostat; first compound 0.1 µM): 0.906; relative viability (Linifanib + Vorinostat; first compound 0.3162 µM): 1.33; relative viability (Linifanib + Olaparib; first compound 0.03162 µM): 0.901; relative viability (Linifanib + Olaparib; first compound 0.1 µM): 0.81; relative viability (Linifanib + Olaparib; first compound 0.3162 µM): 0.8
NCI-H1623	0.918	0.891	1.04	–	–	–	0.848	0.929	0.877	–	–	–	–	–	–	–	–	–	–	–	relative viability (Linifanib + Luminespib; first compound 0.03162 µM): 0.49; relative viability (Linifanib + Luminespib; first compound 0.1 µM): 0.493; relative viability (Linifanib + Luminespib; first compound 0.3162 µM): 0.471; relative viability (Linifanib + OSI-027; first compound 0.03162 µM): 0.437; relative viability (Linifanib + OSI-027; first compound 0.1 µM): 0.43; relative viability (Linifanib + OSI-027; first compound 0.3162 µM): 0.421; relative viability (Linifanib + Tozasertib; first compound 0.03162 µM): 0.427; relative viability (Linifanib + Tozasertib; first compound 0.1 µM): 0.434; relative viability (Linifanib + Tozasertib; first compound 0.3162 µM): 0.417; relative viability (Linifanib + Dasatinib; first compound 0.03162 µM): 0.463; relative viability (Linifanib + Dasatinib; first compound 0.1 µM): 0.608; relative viability (Linifanib + Dasatinib; first compound 0.3162 µM): 0.46; relative viability (Linifanib + Phenformin; first compound 0.03162 µM): 0.524; relative viability (Linifanib + Phenformin; first compound 0.1 µM): 0.601; relative viability (Linifanib + Phenformin; first compound 0.3162 µM): 0.601
